The text below walks through data of PubChem BioAssay (NCI).

One may read the TGI as the concentration giving total growth inhibition. What is called GI50 is the concentration that inhibits growth by half.

Each structure is given as a SMILES string.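 Protocol summary: plate cells (96-well), add compound at 5 concentrations, incubate 48 h, interpolate endpoints linearly. At the GI50, growth is halved. TGI denotes the concentration required for complete inhibition of growth.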 A value given as a limit tells only on which side of the number the result lay.

Among the test systems are A549 NSCLC; HCT-116 colon; HCT-15 colon; HOP-62 NSCLC; HT29 colon; IGROV1 ovarian; K-562 leukemia; NCI-H460 lung; SNB-19 CNS; MDA-MB-435.
What all share (assay): DTP human tumour cell line panel, 48 h

Take `CCN(CC)CCNc1ccc2nnn3c4ccccc4c(=O)c1c23`: the TGI in the assay on A549 NSCLC came to 13.2 µM; in the assay with HCT-116 colon, 35.2 µM; with HCT-15 colon, 26.2 µM; in the assay on HOP-62 NSCLC, 15.8 µM; in the assay on HT29 colon, 14.2 µM; with IGROV1 ovarian, 58.8 µM. Besides, the TGI with K-562 leukemia was 14.8 µM; in the assay on NCI-H460 lung it was 6.27 µM; in the assay with SNB-19 CNS, 40.3 µM.

On to `Oc1cc(CN2COc3ccccc32)c(O)cc1CNC1CCCCC1`, for which the TGI was above 100 µM in the assay with A549 NSCLC; 35.3 µM in the assay on HCT-116 colon; 47.6 µM in the assay with HCT-15 colon; above 100 µM with HOP-62 NSCLC; 52.3 µM with HT29 colon; above 100 µM in the assay on IGROV1 ovarian. Moreover, the TGI with K-562 leukemia was 52.9 µM; in the assay with MDA-MB-435, 60.1 µM; in the assay with NCI-H460 lung, 32.3 µM; with SNB-19 CNS, above 100 µM.

With `NC(N)=NC(N)=Nc1ccccc1` (tested in a mixture with another compound), the TGI in the assay with A549 NSCLC, in the assay with HCT-116 colon, with HCT-15 colon, in the assay on HOP-62 NSCLC, in the assay on HT29 colon and in the assay on IGROV1 ovarian was above 100 µM each time. Moreover, the TGI with K-562 leukemia, in the assay with MDA-MB-435, in the assay on NCI-H460 lung and with SNB-19 CNS was above 100 µM throughout.

`Cc1ccc(C2CC(c3cccc(Nc4ccncc4)c3)=NN2c2ccccc2)cc1` (centres undefined): the GI50 in the assay with HT29 colon is 2.23 µM; with K-562 leukemia, 2.11 µM; in the assay on MDA-MB-435 it was 1.64 µM; in the assay on NCI-H460 lung it was 1.8 µM. Further, the TGI in the assay with HT29 colon is 5.63 µM; in the assay with K-562 leukemia, 6.62 µM; with MDA-MB-435 it was 3.06 µM; in the assay with NCI-H460 lung it was 3.33 µM.

`C=CCc1cccc(/C=N\N=C(/N)NO)c1O`: the TGI is 29.1 µM with A549 NSCLC; above 79.6 µM in the assay with HCT-116 colon; above 100 µM with HCT-15 colon; 7.08 µM in the assay on HOP-62 NSCLC; above 58.5 µM in the assay with HT29 colon; above 74.9 µM in the assay on IGROV1 ovarian. The TGI in the assay on K-562 leukemia was above 47.9 µM; with NCI-H460 lung, 17.1 µM; in the assay with SNB-19 CNS it was above 94.4 µM.

`Nc1ccccc1N=Nc1c(S(=O)(=O)O)cc2cc(S(=O)(=O)O)cc(O)c2c1O`: the concentration for total growth inhibition (TGI) with A549 NSCLC, with HCT-116 colon, in the assay on HCT-15 colon, in the assay on HOP-62 NSCLC, in the assay on HT29 colon and with IGROV1 ovarian was above 100 µM in each case. Also, the TGI in the assay on K-562 leukemia, in the assay on MDA-MB-435 and with SNB-19 CNS was above 100 µM each time.

For `CC1=CC(C)(C)Nc2ccc(CSc3ccccc3)cc21`, the TGI in the assay on A549 NSCLC is 51.4 µM; in the assay on HCT-116 colon, 91.9 µM; in the assay with HCT-15 colon, above 100 µM; with HOP-62 NSCLC, 80 µM; in the assay with HT29 colon, 38.2 µM; with IGROV1 ovarian, above 100 µM. The TGI was above 100 µM in the assay on K-562 leukemia, 63.4 µM with MDA-MB-435, 67.4 µM in the assay with NCI-H460 lung and above 100 µM with SNB-19 CNS.

As for `CC(C)CN(CC#N)CC(C)C`, the TGI in the assay with A549 NSCLC, in the assay on HCT-116 colon, in the assay on HCT-15 colon, in the assay on HOP-62 NSCLC, in the assay with HT29 colon and in the assay with IGROV1 ovarian was above 100 µM each time. Besides, the TGI in the assay with K-562 leukemia, with MDA-MB-435, in the assay with NCI-H460 lung and in the assay with SNB-19 CNS was above 100 µM each time.

Take `CC(=O)N/C(=C\c1ccc(/C=C(\NC(C)=O)C2=NC3C(=O)c4ccccc4C(=O)C3N2)cc1)C1=NC2C(=O)c3ccccc3C(=O)C2N1` (centres undefined): the TGI in the assay on HCT-116 colon, in the assay with HCT-15 colon, in the assay with HT29 colon, with IGROV1 ovarian, with K-562 leukemia and in the assay on NCI-H460 lung was above 100 µM in each case. Besides, the TGI in the assay on SNB-19 CNS was above 100 µM.

On to `Cc1c2c(ccc3ccccc32)c[n+]2ccccc12`, for which the TGI in the assay on A549 NSCLC is above 100 µM; with HCT-116 colon, above 100 µM; in the assay with HCT-15 colon, above 100 µM; in the assay with HOP-62 NSCLC, 26.7 µM; in the assay with HT29 colon, above 100 µM; in the assay on K-562 leukemia, 37.8 µM. The TGI with SNB-19 CNS stood at 7.89 µM.

As to `C[N+](C)([O-])Cc1cc(-c2ccccc2)ccc1O`, the TGI in the assay on A549 NSCLC, in the assay with HCT-116 colon, with HCT-15 colon, with HOP-62 NSCLC, in the assay with HT29 colon and in the assay on IGROV1 ovarian was above 100 µM throughout. For the same compound, the TGI with K-562 leukemia, in the assay with MDA-MB-435, in the assay with NCI-H460 lung and with SNB-19 CNS was above 100 µM throughout.

Regarding `O=c1nc2sc3ccc4ccccc4c3n2[nH]c1=O`, the TGI is above 100 µM with A549 NSCLC; above 100 µM with HCT-116 colon; 71.5 µM in the assay on HOP-62 NSCLC; above 100 µM with HT29 colon; above 100 µM in the assay on IGROV1 ovarian; above 100 µM with K-562 leukemia. Also, the concentration for total growth inhibition (TGI) in the assay with NCI-H460 lung and in the assay on SNB-19 CNS was above 100 µM each time.

Turning to `O=C(O)Cn1c2c(c3c(O)cccc31)C(=O)c1ccccc1-2`, the GI50 in the assay on A549 NSCLC was above 100 µM; in the assay with HCT-116 colon, 93.6 µM; with HCT-15 colon, above 100 µM; in the assay on HOP-62 NSCLC, above 100 µM; in the assay on HT29 colon, above 100 µM; with IGROV1 ovarian, above 100 µM. In addition, the GI50 in the assay on K-562 leukemia, with MDA-MB-435, with NCI-H460 lung and with SNB-19 CNS was above 100 µM each time. Further, the TGI with A549 NSCLC, in the assay with HCT-116 colon, in the assay on HCT-15 colon, in the assay with HOP-62 NSCLC, with HT29 colon and in the assay on IGROV1 ovarian was above 100 µM throughout. Further, the TGI in the assay with K-562 leukemia, with MDA-MB-435, with NCI-H460 lung and in the assay with SNB-19 CNS was above 100 µM each time.

With `C[C@]12CC[C@@H]3c4ccc(OCCN5CCCC5)cc4CC[C@H]3[C@@H]1CCC2=O`, the TGI with A549 NSCLC is above 100 µM; with HCT-15 colon it was 29 µM; with HOP-62 NSCLC, 44.5 µM; with HT29 colon, above 100 µM; with IGROV1 ovarian it was 40.7 µM; in the assay on K-562 leukemia, above 100 µM. Moreover, the values for the TGI in the assay on MDA-MB-435, in the assay with NCI-H460 lung and in the assay with SNB-19 CNS were above 100 µM, 53.9 µM and above 100 µM, respectively.

Turning to `CCCCN=C1OCc2[nH][nH]c(=O)c21`, the TGI in the assay with A549 NSCLC, in the assay on HCT-116 colon, in the assay with HCT-15 colon, in the assay on HOP-62 NSCLC, with HT29 colon and in the assay with IGROV1 ovarian was above 100 µM throughout. Also, the total growth inhibition concentration (TGI) with K-562 leukemia, with NCI-H460 lung and in the assay with SNB-19 CNS was above 100 µM each time.

For `[O-][n+]1c(-c2ccccc2)c2nc3ccccc3nc2c2ccccc21`, the TGI in the assay with A549 NSCLC, in the assay on HCT-116 colon, in the assay on HCT-15 colon, with HOP-62 NSCLC, in the assay on HT29 colon and in the assay with IGROV1 ovarian was above 100 µM in each case. Moreover, the TGI in the assay on K-562 leukemia, in the assay with NCI-H460 lung and with SNB-19 CNS was above 100 µM throughout.

`O=C(O)c1nccnc1C(=O)O`: the TGI in the assay with A549 NSCLC, with HCT-116 colon, in the assay with HCT-15 colon, in the assay on HT29 colon, with IGROV1 ovarian and in the assay on K-562 leukemia was above 100 µM in each case. For the same compound, the TGI in the assay on NCI-H460 lung and with SNB-19 CNS was above 100 µM throughout.

With `CCCCCCCCCCCCCCCC(=O)OC1C(O)C(CO)OC(OC)C1NC(=O)N(CCCl)N=O` (centres undefined), the TGI in the assay with A549 NSCLC came to 23.8 µM; with HCT-116 colon, 30 µM; in the assay with HCT-15 colon, 54.8 µM; with HOP-62 NSCLC it was 32.3 µM; with HT29 colon, 26.8 µM; in the assay with IGROV1 ovarian, 38.3 µM. For the same compound, the figures for the TGI in the assay on K-562 leukemia, in the assay with NCI-H460 lung and in the assay with SNB-19 CNS were 66.1 µM, 17.6 µM and 23.8 µM, respectively.

As for `CCCOC1OC(CS(=O)(=O)O)C(O)C(O)C1O` (centres undefined), the TGI with HCT-116 colon, in the assay with HCT-15 colon, with HOP-62 NSCLC, with HT29 colon, in the assay on IGROV1 ovarian and with K-562 leukemia was above 100 µM in each case. Besides, the TGI in the assay with MDA-MB-435, in the assay with NCI-H460 lung and in the assay on SNB-19 CNS was above 100 µM throughout.

With `CN(C)C(=O)C1CCN(Cc2c[nH]c3ccccc23)CC1`, the TGI in the assay with A549 NSCLC, in the assay on HCT-116 colon, in the assay with HCT-15 colon, with HOP-62 NSCLC, in the assay on HT29 colon and in the assay on IGROV1 ovarian was above 100 µM in each case. The TGI in the assay on K-562 leukemia, in the assay with MDA-MB-435 and in the assay on SNB-19 CNS was above 100 µM in each case.

Regarding `CCOC(=O)NC(Nc1ccc(Cl)cn1)(C(F)(F)F)C(F)(F)F`, the concentration for total growth inhibition (TGI) in the assay with HCT-116 colon, in the assay with HCT-15 colon, in the assay on HOP-62 NSCLC, with HT29 colon, in the assay with K-562 leukemia and in the assay on MDA-MB-435 was above 100 µM each time. The TGI with NCI-H460 lung and in the assay on SNB-19 CNS was above 100 µM in each case.

As to `N#CCCN(CCC#N)c1ccc(/C=C2\N=C(c3cc([N+](=O)[O-])ccc3Cl)N(NC(=O)CC(=O)Nc3ccccc3Cl)C2=O)cc1`, the TGI in the assay on A549 NSCLC, in the assay with HCT-116 colon, in the assay on HCT-15 colon, in the assay on HOP-62 NSCLC, in the assay on IGROV1 ovarian and in the assay with K-562 leukemia was above 100 µM each time. The compound also returned a TGI with SNB-19 CNS above 100 µM.
